Reference: ChEMBL document CHEMBL4425162, “Discovery of potent wall teichoic acid early stage inhibitors” (Bioorg Med Chem Lett, 2016)
pEC50, pIC50: −log10 of the molar value. Activity calls are given as the source filed them. No cut-off for these calls is given here.

Assays:
[1] = test system: Staphylococcus aureus; experiment: Inhibition of Methicillin-resistant Staphylococcus aureus TarO assessed as percentage of MRSA MITC<=25 uM for 25 isolates; parameters: scale not given: the % may be the effect or the level left
[2] = test system: Staphylococcus aureus subsp. aureus COL; experiment: Inhibition of Staphylococcus aureus COL TarO assessed as concentration of compound for potentiation of action of imipenem-mediated bacterial growth inhibition
[3] = Inhibition of Methicillin-resistant Staphylococcus aureus COL TarO assessed as suppression of bacteriophageK-mediated cell lysis; parameters: species or system Staphylococcus aureus subsp. aureus COL
[4] = Binding affinity to Methicillin-resistant Staphylococcus aureus COL TarG assessed as suppression of targocil-mediated bacterial growth inhibition after 20 hrs in presence of L-638; parameters: species or system Staphylococcus aureus subsp. aureus COL
[5] = test system: Staphylococcus epidermidis; experiment: Inhibition of Methicillin-resistant Staphylococcus epidermidis TarO assessed as percentage of MRSE MITC<=25 uM for 25 isolates; parameters: scale not given: the % may be the effect or the level left
[6] = Inhibition of mnaA (unknown origin) at 200 uM
[7] = Inhibition of Staphylococcus aureus TarO; parameters: species or system Staphylococcus aureus subsp. aureus COL
[8] = Inhibition of TarA (unknown origin) at 200 uM

| Compound | Activity [1] [%] | MITC95 [2] [µM] | pEC50 [3] | pEC50 [4] | Activity [5] [%] | inhibition [6] | pIC50 [7] | inhibition [8] |
| --- | --- | --- | --- | --- | --- | --- | --- | --- |
| CCN(C(=O)CCn1c(N2CCC(C(C)(C)C)CC2)nc2ccccc21)C1CCCCC1 | 76 | 0.016 | 6.60 | 6.89 | 29 |  |  |  |
| CCN(C(=O)CCn1c(N2CCCCC2)nc2ccccc21)C1CCCCC1 |  | 4.7 | < 3.70 | 5.15 |  |  |  |  |
| CCN(C(=O)CCn1c2cc(Br)ccc2nc1[C@H]1CC[C@H](CC)CC1)C1CCCCC1 | 68 | 0.031 | 6.62 | 6.48 | 42 |  |  |  |
| CCN(C(=O)CCn1c(C2CCCCC2)nc2ccccc21)C1CCCCCC1 |  | 4.7 | 3.70 | 3.70 |  |  |  |  |
| O=C(CCn1c(C2CCCCC2)nc2ccccc21)NC1CCCCC1 |  | 25 | 3.70 | 3.86 |  |  |  |  |
| CCN(C(=O)CCn1c(C2CCCCC2)nc2ccccc21)c1ccccc1 |  | 50 | 3.70 | 3.70 |  |  |  |  |
| CCN(C(=O)CCn1c2cccc(Br)c2nc1[C@H]1CC[C@H](CC)CC1)C1CCCCC1 | 68 | 0.3 | 5.47 | 5.89 | 83 |  |  |  |
| CCC1CCN(c2nc3ccccc3n2CCC(=O)N(CC)C2CCCCC2)CC1 |  | 0.1 | 6.41 | 6.66 |  |  |  |  |
| CCN1CCC(c2nc3ccccc3n2CCC(=O)N[C@H]2CC3CC[C@@]2(C)C3(C)C)CC1 |  | > 200 | < 3.70 | < 3.70 |  |  |  |  |
| CCN(C(=O)CCn1c(C2CCC(C(C)(C)C)CC2)nc2ccccc21)C1CCCCC1 (stereo not given) |  | 0.015 | 6.60 | 7.30 |  |  |  |  |
| CCN(C(=O)CCn1c2cccc(C)c2nc1[C@H]1CC[C@H](CC)CC1)C1CCCCC1 | 68 | 0.1 | 6.05 | 6.10 | 92 |  |  |  |
| CC1(C)[C@@H]2CC[C@@]1(C)[C@H](NC(=O)CCn1c(C3CCCCC3)nc3ccccc31)C2 |  | 1.6 | 5.10 | 5.62 |  | inactive | 6.40 | inactive |
| CCN(C(=O)CCn1c2ccc(Br)cc2nc1[C@H]1CC[C@H](CC)CC1)C1CCCCC1 | 80 | 0.004 | 7.57 | 7.82 | 46 |  |  |  |
| CC(C)(C)OC(=O)N1CCC(c2nc3ccccc3n2CCC(=O)N[C@H]2CC3CC[C@@]2(C)C3(C)C)CC1 |  | 9.4 | 3.79 | 4.23 |  |  |  |  |
| CC1(C)C2CC[C@]1(C)[C@@H](NC(=O)CCn1c(C3CCNCC3)nc3ccccc31)C2 |  | > 200 | < 3.70 | < 3.70 |  |  |  |  |
| CC1(C)[C@@H]2CC[C@@]1(C)[C@@H](NC(=O)CCn1c(C3CCCCC3)nc3ccccc31)C2 |  | 16.7 | 3.75 | 4.24 |  |  |  |  |
| CC1(C)C2CC[C@]1(C)[C@@H](NC(=O)CCn1c(C3CCN(S(C)(=O)=O)CC3)nc3ccccc31)C2 |  | > 200 | < 3.70 | < 3.70 |  |  |  |  |
| CN(C(=O)CCn1c(C2CCCCC2)nc2ccccc21)C1CCCCC1 |  | 4.7 | 4.60 | 4.94 |  |  |  |  |
| CCN(C(=O)CCn1c(C2CCCCC2)nc2ccccc21)C1CCCCC1 |  | 1.9 | 5.00 | 5.21 |  |  |  |  |
| CCCN(C(=O)CCn1c(C2CCCCC2)nc2ccccc21)C1CCCCC1 |  | 6.2 | 3.70 | 5.11 |  |  |  |  |
| CCC1CCC(c2nc3ccccc3n2CCC(=O)N(CC)C2CCCCC2)CC1 (stereo not given) |  | 0.03 | 6.66 | 6.62 |  |  |  |  |
| CCN(C(=O)CCn1c(C2CCCCC2)nc2ccccc21)C1CCCC1 |  | 12.5 | 3.70 | 4.53 |  |  |  |  |
| CCN(C(=O)CCn1c(N2CCC(C)CC2)nc2ccccc21)C1CCCCC1 |  | 1.3 | 5.42 | 6.04 |  |  |  |  |
| CC(=O)N1CCC(c2nc3ccccc3n2CCC(=O)N[C@H]2CC3CC[C@@]2(C)C3(C)C)CC1 |  | > 200 | < 3.70 | < 3.70 |  |  |  |  |
